According to patent US12617797B2, “Substituted pyrazolo [1,5-a]pyrimidines having multimodal activity against pain” (ESTEVE PHARMACEUTICALS, S.A., priority 2020, dated 2026):

Key:
[1] = target: Human α2δ-1 subunit of Cav2.2 calcium channel (Homo sapiens, UniProt P54289); test: Human α2δ-1 subunit of Cav2.2 calcium channel assay ([3H]-gabapentin binding); conditions: binding to the α2δ-1 subunit of voltage-gated calcium channels expressed as Ki; + also covers inhibition between 1% and 50%
How it was run: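 Membranes enriched in human α2δ-1 incubated with 15 nM [3H]-gabapentin in 10 mM Hepes-KOH pH 7.4, 60 min at 27 °C; nonspecific binding defined with 10 μM pregabalin. Filtration and scintillation counting; % inhibition at 1 or 10 μM, or Ki from five concentrations.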

Human σ1 receptor = target: T1, Human σ1 receptor (Homo sapiens, UniProt Q99720); test: Human σ1 receptor radioligand assay ([3H](+)-pentazocine binding, transfected HEK-293 membranes); conditions: binding to σ1 receptor expressed as Ki; + also covers inhibition between 1% and 50%; read-out: σ-1 binding
T1 construct: expressed in transfected cells; host or cells: HEK-293
How it was run: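 Membranes (7 μg) were incubated with 5 nM [3H](+)-pentazocine in 50 mM Tris-HCl pH 8 for 120 min at 37° C. Non-specific binding was defined with 10 μM haloperidol. Values are % inhibition at 1 or 10 μM or Ki from five concentrations, read by filtration and scintillation counting.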

Human α2δ-1 subunit of Cav2.2 calcium channel, sequence (P54289 25-1103): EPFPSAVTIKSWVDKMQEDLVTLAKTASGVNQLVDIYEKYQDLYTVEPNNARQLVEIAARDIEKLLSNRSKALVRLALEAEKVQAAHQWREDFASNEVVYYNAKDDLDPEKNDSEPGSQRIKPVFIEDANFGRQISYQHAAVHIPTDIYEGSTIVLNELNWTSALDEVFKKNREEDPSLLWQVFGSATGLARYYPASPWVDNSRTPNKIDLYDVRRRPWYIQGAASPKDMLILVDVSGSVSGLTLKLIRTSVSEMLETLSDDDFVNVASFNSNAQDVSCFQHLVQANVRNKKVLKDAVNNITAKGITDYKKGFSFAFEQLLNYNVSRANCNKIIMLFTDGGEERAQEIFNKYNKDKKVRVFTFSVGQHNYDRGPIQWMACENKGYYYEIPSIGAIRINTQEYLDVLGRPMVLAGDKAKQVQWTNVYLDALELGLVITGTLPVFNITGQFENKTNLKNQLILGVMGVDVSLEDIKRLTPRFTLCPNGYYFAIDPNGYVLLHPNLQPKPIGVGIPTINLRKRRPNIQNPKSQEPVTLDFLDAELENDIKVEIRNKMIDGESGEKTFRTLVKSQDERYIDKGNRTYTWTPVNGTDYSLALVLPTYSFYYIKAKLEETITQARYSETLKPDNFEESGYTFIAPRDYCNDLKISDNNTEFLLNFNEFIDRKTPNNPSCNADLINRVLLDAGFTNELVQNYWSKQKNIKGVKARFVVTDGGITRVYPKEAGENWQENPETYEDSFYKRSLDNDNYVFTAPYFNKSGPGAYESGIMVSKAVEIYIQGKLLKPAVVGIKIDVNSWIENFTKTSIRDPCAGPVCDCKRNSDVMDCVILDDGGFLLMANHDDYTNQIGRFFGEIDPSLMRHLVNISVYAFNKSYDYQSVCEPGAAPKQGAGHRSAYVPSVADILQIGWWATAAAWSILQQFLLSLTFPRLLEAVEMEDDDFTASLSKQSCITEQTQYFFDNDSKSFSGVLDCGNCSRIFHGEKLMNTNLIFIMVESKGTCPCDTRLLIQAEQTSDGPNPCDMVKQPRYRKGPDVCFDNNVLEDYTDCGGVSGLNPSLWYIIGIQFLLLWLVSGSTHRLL
T1 sequence (Q99720 whole entry): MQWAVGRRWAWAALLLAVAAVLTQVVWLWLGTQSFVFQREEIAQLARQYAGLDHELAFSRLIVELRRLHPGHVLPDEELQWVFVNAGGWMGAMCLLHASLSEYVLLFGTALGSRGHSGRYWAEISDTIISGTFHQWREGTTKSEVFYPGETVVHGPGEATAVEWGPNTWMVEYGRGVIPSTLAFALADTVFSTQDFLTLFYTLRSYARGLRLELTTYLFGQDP

| SMILES | Ki [1] | Ki (Human σ1 receptor) |
| --- | --- | --- |
| Cc1nn2c(C3CCCN(Cc4ccccc4)C3)ccnc2c1CO (stereo not shown) [Example 95, (7-(1-Benzylpiperidin-3-yl)-2-methylpyrazolo[1,5-a]pyrimidin-3-yl)methanol] | > 5000 nM | > 1000 nM |
| CNCc1c(C)nn2c(C3CCCN(Cc4ccccc4)C3)ccnc12 (stereo not shown) [Example 96, 1-(7-(1-Benzylpiperidin-3-yl)-2-methylpyrazolo[1,5-a]pyrimidin-3-yl)-N-methylmethanamine] | 500 to 5000 nM | > 1000 nM |
| Cc1nn2c(C3CCCN(Cc4ccccc4)C3)ccnc2c1CNCCc1ccccc1 (stereo not shown) [Example 97, N-((7-(1-Benzylpiperidin-3-yl)-2-methylpyrazolo[1,5-a]pyrimidin-3-yl)methyl)-2-phenylethanamine] | 500 to 5000 nM | < 500 nM |
| Cc1nn2c(C3CCCN(Cc4ccccc4)C3)ccnc2c1CNCc1ccccc1 (stereo not shown) [Example 98, N-Benzyl-1-(7-(1-benzylpiperidin-3-yl)-2-methylpyrazolo[1,5-a]pyrimidin-3-yl)methanamine] | 500 to 5000 nM | < 500 nM |
| Cc1nn2c(C3CCCN(Cc4ccccc4)C3)ccnc2c1CN (stereo not shown) [Example 99, (7-(1-Benzylpiperidin-3-yl)-2-methylpyrazolo[1,5-a]pyrimidin-3-yl)methanamine] | 500 to 5000 nM | > 1000 nM |
| Cc1nn2c(C3CCCN(Cc4ccccc4)C3)ccnc2c1CN1CCNCC1 (stereo not shown) [Example 100, 7-(1-Benzylpiperidin-3-yl)-2-methyl-3-(piperazin-1-ylmethyl)pyrazolo[1,5-a]pyrimidine] | 500 to 5000 nM | > 1000 nM |
| Cc1nn2c(C3CCCN(Cc4ccccc4)C3)ccnc2c1COCc1ccccc1 (stereo not shown) [Example 101, 3-((Benzyloxy)methyl)-7-(1-benzylpiperidin-3-yl)-2-methylpyrazolo[1,5-a]pyrimidine] | > 5000 nM | < 500 nM |
| Cc1nn2c(C3CCCN(Cc4ccccc4)C3)ccnc2c1COc1ccccc1 (stereo not shown) [Example 102, 7-(1-Benzylpiperidin-3-yl)-2-methyl-3-(phenoxymethyl)pyrazolo[1,5-a]pyrimidine] | > 5000 nM | > 1000 nM |
| Cc1nn2c(C3CCCN(Cc4ccccc4)C3)ccnc2c1CCCN (stereo not shown) [Example 103, 3-(7-(1-Benzylpiperidin-3-yl)-2-methylpyrazolo[1,5-a]pyrimidin-3-yl)propan-1-amine] | 500 to 5000 nM | > 1000 nM |
| Cc1nn2c([C@@H]3CCCN([C@H](CO)c4ccccc4)C3)ccnc2c1-c1ccncc1 [Example 106, (S)-2-((R)-3-(2-Methyl-3-(pyridin-4-yl)pyrazolo[1,5-a]pyrimidin-7-yl)piperidin-1-yl)-2-phenylethanol] | > 5000 nM | > 1000 nM |
| Cc1nn2c([C@H]3CCCN([C@H](CO)c4ccccc4)C3)ccnc2c1-c1ccncc1 [Example 107, (S)-2-((S)-3-(2-methyl-3-(pyridin-4-yl)pyrazolo[1,5-a]pyrimidin-7-yl)piperidin-1-yl)-2-phenylethanol] | > 5000 nM | > 1000 nM |
| Cc1nn2c([C@H]3CCCN([C@@H](CO)c4ccccc4)C3)ccnc2c1-c1ccncc1 [Example 108, (R)-2-((S)-3-(2-methyl-3-(pyridin-4-yl)pyrazolo[1,5-a]pyrimidin-7-yl)piperidin-1-yl)-2-phenylethanol] | > 5000 nM | > 1000 nM |
| Cc1nn2c([C@@H]3CCCN([C@@H](CO)c4ccccc4)C3)ccnc2c1-c1ccncc1 [Example 109, (R)-2-((R)-3-(2-methyl-3-(pyridin-4-yl)pyrazolo[1,5-a]pyrimidin-7-yl)piperidin-1-yl)-2-phenylethanol] | 500 to 5000 nM | > 1000 nM |
| Clc1ccc(CN2CCCC(c3ccnc4c(CNCC5CCOCC5)c(Br)nn34)C2)cc1 (stereo not shown) [Example 120, 1-(2-Bromo-7-(1-(4-chlorobenzyl)piperidin-3-yl)pyrazolo[1,5-a]pyrimidin-3-yl)-N-((tetrahydro-2H-pyran-4-yl)methyl)methanamine] | < 500 nM | < 500 nM |
| Cc1nn2c(C3CCCN(CCC(C)C)C3)ccnc2c1-c1ccncc1 (stereo not shown) [Example 127, 7-(1-Isopentylpiperidin-3-yl)-2-methyl-3-(pyridin-4-yl)pyrazolo[1,5-a]pyrimidine] | > 5000 nM | < 500 nM |

More lines, now with the values ahead:

| Ki [1] | Ki (Human σ1 receptor) | SMILES |
| --- | --- | --- |
| 500 to 5000 nM | > 1000 nM | CNCc1cc2nccc(C3CCCN(Cc4ccccc4)C3)n2n1 (stereo not shown) [Example 93, 1-(7-(1-Benzylpiperidin-3-yl)pyrazolo[1,5-a]pyrimidin-2-yl)-N-methylmethanamine] |
| 500 to 5000 nM | > 1000 nM | c1ccc(CNCc2cc3nccc(C4CCCN(Cc5ccccc5)C4)n3n2)cc1 (stereo not shown) [Example 94, N-Benzyl-1-(7-(1-benzylpiperidin-3-yl)pyrazolo[1,5-a]pyrimidin-2-yl)methanamine] |
| > 5000 nM | 500 to 1000 nM | Clc1ccc(CN2CCCC(c3ccnc4cc(Br)nn34)C2)cc1 (stereo not shown) [Example 110, 2-Bromo-7-(1-(4-chlorobenzyl)piperidin-3-yl)pyrazolo[1,5-a]pyrimidine] |
| > 5000 nM | > 1000 nM | Clc1cccc(CN2CCCC(c3ccnc4cc(Br)nn34)C2)c1 (stereo not shown) [Example 111, 2-Bromo-7-(1-(3-chlorobenzyl)piperidin-3-yl)pyrazolo[1,5-a]pyrimidine] |
| > 5000 nM | > 1000 nM | Clc1ccc(CN2CCCC(c3ccnc4cc(Br)nn34)C2)cc1Cl (stereo not shown) [Example 112, 2-Bromo-7-(1-(3,4-dichlorobenzyl)piperidin-3-yl)pyrazolo[1,5-a]pyrimidine] |
| 500 to 5000 nM | > 1000 nM | Fc1ccc(CN2CCCC(c3ccnc4cc(Br)nn34)C2)cc1F (stereo not shown) [Example 113, 2-Bromo-7-(1-(3,4-difluorobenzyl)piperidin-3-yl)pyrazolo[1,5-a]pyrimidine] |
| > 5000 nM | > 1000 nM | COc1ncccc1-c1cc2nccc(C3CCCN(Cc4ccc(Cl)cc4)C3)n2n1 (stereo not shown) [Example 114, 7-(1-(4-Chlorobenzyl)piperidin-3-yl)-2-(2-methoxypyridin-3-yl)pyrazolo[1,5-a]pyrimidine] |
| > 5000 nM | > 1000 nM | Oc1ncccc1-c1cc2nccc(C3CCCN(Cc4ccc(Cl)cc4)C3)n2n1 (stereo not shown) [Example 115, 3-(7-(1-(4-chlorobenzyl)piperidin-3-yl)pyrazolo[1,5-a]pyrimidin-2-yl)pyridin-2-ol] |
| > 5000 nM | > 1000 nM | COc1ncccc1-c1cc2nccc(C3CCCN(Cc4cccc(Cl)c4)C3)n2n1 (stereo not shown) [Example 116, 7-(1-(3-Chlorobenzyl)piperidin-3-yl)-2-(2-methoxypyridin-3-yl)pyrazolo[1,5-a]pyrimidine] |
| > 5000 nM | > 1000 nM | Oc1ncccc1-c1cc2nccc(C3CCCN(Cc4cccc(Cl)c4)C3)n2n1 (stereo not shown) [Example 117, 3-(7-(1-(3-Chlorobenzyl)piperidin-3-yl)pyrazolo[1,5-a]pyrimidin-2-yl)pyridin-2-ol] |
| > 5000 nM | > 1000 nM | COc1ncccc1-c1cc2nccc(C3CCCN(Cc4ccc(Cl)c(Cl)c4)C3)n2n1 (stereo not shown) [Example 118, 7-(1-(3,4-Dichlorobenzyl)piperidin-3-yl)-2-(2-methoxypyridin-3-yl)pyrazolo[1,5-a]pyrimidine] |
| > 5000 nM | > 1000 nM | COc1ncccc1-c1cc2nccc(C3CCCN(Cc4ccc(F)c(F)c4)C3)n2n1 (stereo not shown) [Example 119, 7-(1-(3,4-Difluorobenzyl)piperidin-3-yl)-2-(2-methoxypyridin-3-yl)pyrazolo[1,5-a]pyrimidine] |
| 500 to 5000 nM | 500 to 1000 nM | Cc1nn2c(C3CCCN(Cc4ccc(Cl)cc4)C3)ccnc2c1-c1ccncc1 (stereo not shown) [Example 121, 7-(1-(4-Chlorobenzyl)piperidin-3-yl)-2-methyl-3-(pyridin-4-yl)pyrazolo[1,5-a]pyrimidine] |
| 500 to 5000 nM | > 1000 nM | Cc1nn2c(C3CCCN(Cc4cccc(Cl)c4)C3)ccnc2c1-c1ccncc1 (stereo not shown) [Example 122, 7-(1-(3-Chlorobenzyl)piperidin-3-yl)-2-methyl-3-(pyridin-4-yl)pyrazolo[1,5-a]pyrimidine] |
| 500 to 5000 nM | > 1000 nM | Cc1nn2c(C3CCCN(Cc4ccc(Cl)c(Cl)c4)C3)ccnc2c1-c1ccncc1 (stereo not shown) [Example 123, 7-(1-(3,4-Dichlorobenzyl)piperidin-3-yl)-2-methyl-3-(pyridin-4-yl)pyrazolo[1,5-a]pyrimidine] |
| > 5000 nM | 500 to 1000 nM | Cc1nn2c(C3CCCN(Cc4ccc(Cl)cc4Cl)C3)ccnc2c1-c1ccncc1 (stereo not shown) [Example 124, 7-(1-(2,4-Dichlorobenzyl)piperidin-3-yl)-2-methyl-3-(pyridin-4-yl)pyrazolo[1,5-a]pyrimidine] |
| 500 to 5000 nM | > 1000 nM | Cc1nn2c(C3CCCN(Cc4ccc(F)c(F)c4)C3)ccnc2c1-c1ccncc1 (stereo not shown) [Example 125, 7-(1-(3,4-Difluorobenzyl)piperidin-3-yl)-2-methyl-3-(pyridin-4-yl)pyrazolo[1,5-a]pyrimidine] |
| > 5000 nM | > 1000 nM | Cc1nn2c(C3CCCN(Cc4ccc(C(F)(F)F)cc4)C3)ccnc2c1-c1ccncc1 (stereo not shown) [Example 126, 2-Methyl-3-(pyridin-4-yl)-7-(1-(4-(trifluoromethyl)benzyl)piperidin-3-yl)pyrazolo[1,5-a]pyrimidine] |
| > 5000 nM | > 1000 nM | Cc1nn2c(C3CCCN(Cc4ccc(Cl)cc4)C3)ccnc2c1-c1cccc(C(=O)N(C)C)c1 (stereo not shown) [Example 128, 3-(7-(1-(4-Chlorobenzyl)piperidin-3-yl)-2-methylpyrazolo[1,5-a]pyrimidin-3-yl)-N,N-dimethylbenzamide] |
| > 5000 nM | > 1000 nM | Cc1nn2c(C3CCCN(Cc4ccc(Cl)cc4)C3)ccnc2c1-c1ccc(C(N)=O)cc1 (stereo not shown) [Example 129, 4-(7-(1-(4-Chlorobenzyl)piperidin-3-yl)-2-methylpyrazolo[1,5-a]pyrimidin-3-yl)benzamide] |
